Source: patent US20030190603A1, “Method and system for predicting therapeutic agent resistance and for defining the genetic basis of drug resistance using neural networks” (priority 2003, published 2003)
Like-named read-outs stand apart in the source and are kept apart here.

Assays:
[1] = tested on: patient's recombinant virus (HIV-1); assay: Phenotypic susceptibility, MT-4 cell viral cytopathic effect protection assay (fold resistance vs wild-type control virus); format: cell-based
Procedure: Phenotypic susceptibility was determined using a MT-4 cell viral cytopathic effect protection assay. See, e.g., Kashiwase et al., Chemotherapy 45(1):48-55 (1999), expressly incorporated herein by reference; Larder et al., Antimicrob. Agents Chemother. 43(8): 1961-1967 (1999). […] The procedure is also described in WO 97/27480.

HIV-1 [2] = conditions: cited from earlier work
HIV-1 [3] = conditions: drug - cut-off, Larder & Harrigan AIDS 2000; cited from earlier work
[4] = HIV-1 mutation 333D/E in addition to M184V

Nc1ccn([C@@H]2CS[C@H](CO)O2)c(=O)n1 [3TC]
Drug resistance level (from the phenotypic data) ([1]; test sample 1): S/S (A fold resistance of less than or equal to 4 is considered to be) | Drug resistance level (from the phenotypic data) ([1]; test sample 2): R/R (if the value is greater than 10, it is considered to be) | Drug resistance level (from the phenotypic data) ([1]; test sample 3): R/R (if the value is greater than 10, it is considered to be) | Drug resistance level (from the phenotypic data) ([1]; test sample 4): S/S (A fold resistance of less than or equal to 4 is considered to be) | Drug resistance level (from the phenotypic data) ([1]; test sample 5): R/R (if the value is greater than 10, it is considered to be) | Drug resistance level (from the phenotypic data) ([1]; test sample 6): R (if the value is greater than 10, it is considered to be) | Drug resistance level (from the phenotypic data) ([1]; test sample 7): R/R (if the value is greater than 10, it is considered to be) | Drug resistance level (from the phenotypic data) ([1]; test sample 8): R/R (if the value is greater than 10, it is considered to be) | Drug resistance level (from the phenotypic data) ([1]; test sample 9): R/R (if the value is greater than 10, it is considered to be) | Drug resistance level (from the phenotypic data) ([1]; test sample 10): S/S (A fold resistance of less than or equal to 4 is considered to be) | Effect of mutation on resistance (HIV-1 [2]; [4]): dual AZT/3TC resistance | Effect of mutation on resistance (HIV-1 [2]; HIV-1 mutation M184V): confers resistance | Biological cut-off (fold resistance) (HIV-1 [3]): 4.5

Nc1nc(NC2CC2)c2ncn([C@H]3C=C[C@@H](CO)C3)c2n1 [1592 U89]
Drug resistance level (from the phenotypic data) ([1]; test sample 1): S/S (A fold resistance of less than or equal to 4 is considered to be) | Drug resistance level (from the phenotypic data) ([1]; test sample 2): S (A fold resistance of less than or equal to 4 is considered to be) | Drug resistance level (from the phenotypic data) ([1]; test sample 3): S/S (A fold resistance of less than or equal to 4 is considered to be) | Drug resistance level (from the phenotypic data) ([1]; test sample 4): S/S (A fold resistance of less than or equal to 4 is considered to be) | Drug resistance level (from the phenotypic data) ([1]; test sample 5): S/S (A fold resistance of less than or equal to 4 is considered to be) | Drug resistance level (from the phenotypic data) ([1]; test sample 6): I (greater than 4 and less than 10 is considered to be) | Drug resistance level (from the phenotypic data) ([1]; test sample 7): S/S (A fold resistance of less than or equal to 4 is considered to be) | Drug resistance level (from the phenotypic data) ([1]; test sample 8): I (greater than 4 and less than 10 is considered to be) | Drug resistance level (from the phenotypic data) ([1]; test sample 9): S/S (A fold resistance of less than or equal to 4 is considered to be) | Drug resistance level (from the phenotypic data) ([1]; test sample 10): S/S (A fold resistance of less than or equal to 4 is considered to be) | Biological cut-off (fold resistance) (HIV-1 [3]): 3.0

Cc1cn([C@H]2C[C@H](N=[N+]=[N-])[C@@H](CO)O2)c(=O)[nH]c1=O [AZT, 3′-azido-3′-deoxythymidine]
Effect of mutation on resistance (HIV-1 [2]; [4]): dual AZT/3TC resistance | Effect of mutation on resistance (HIV-1 [2]; HIV-1 mutation M184V): reverses AZT resistance | Biological cut-off (fold resistance) (HIV-1 [3]): 4.0

Cc1cn([C@H]2C=C[C@@H](CO)O2)c(=O)[nH]c1=O [D4T]
Mean fold change of IC50 ([1]; 92 of 188 test samples with d4T IC50<3-fold): 1.1 fold | Mean fold change of IC50 ([1]; 96 of 188 test samples with d4T IC50>3-fold): 7.7 fold | Mean fold change of IC50 ([1]; 1040 of 2286 samples with d4T IC50<3-fold): 1.2 fold | Mean fold change of IC50 ([1]; 1246 of 2286 samples with d4T IC50>3-fold): 9.0 fold | Biological cut-off (fold resistance) (HIV-1 [3]): 1.75

Nc1ccn([C@H]2CC[C@@H](CO)O2)c(=O)n1 [DDC]
Biological cut-off (fold resistance) (HIV-1 [3]): 2.0

OC[C@@H]1CC[C@H](n2cnc3c(O)ncnc32)O1 [DDI, 2′,3′-dideoxyinosine]
Biological cut-off (fold resistance) (HIV-1 [3]): 2.0

O=C1Nc2ccc(Cl)cc2[C@@](C#CC2CC2)(C(F)(F)F)O1 [DMP266]
Biological cut-off (fold resistance) (HIV-1 [3]): 6.0

CC(C)Nc1cccnc1N1CCN(C(=O)c2cc3cc(NS(C)(=O)=O)ccc3[nH]2)CC1 [Delavirdine]
Biological cut-off (fold resistance) (HIV-1 [3]): 10.0

CC(C)(C)NC(=O)[C@@H]1CN(Cc2cccnc2)CCN1C[C@@H](O)C[C@@H](Cc1ccccc1)C(=O)N[C@H]1c2ccccc2C[C@H]1O [Indinavir]
Biological cut-off (fold resistance) (HIV-1 [3]): 3.0

Cc1cccc(C)c1OCC(=O)N[C@@H](Cc1ccccc1)[C@@H](O)C[C@H](Cc1ccccc1)NC(=O)[C@H](C(C)C)N1CCCNC1=O [Lopinavir]
Biological cut-off (fold resistance) (HIV-1 [3]): 2.5

Cc1c(O)cccc1C(=O)N[C@@H](CSc1ccccc1)[C@H](O)CN1C[C@H]2CCCC[C@H]2C[C@H]1C(=O)NC(C)(C)C [Nelfinavir]
Biological cut-off (fold resistance) (HIV-1 [3]): 4.0

Cc1ccnc2c1NC(=O)c1cccnc1N2C1CC1 [Nevirapine]
Biological cut-off (fold resistance) (HIV-1 [3]): 8.0

CC(C)c1nc(CN(C)C(=O)N[C@H](C(=O)N[C@@H](Cc2ccccc2)C[C@H](O)[C@H](Cc2ccccc2)NC(=O)OCc2cncs2)C(C)C)cs1 [Ritonavir]
Biological cut-off (fold resistance) (HIV-1 [3]): 3.5

CC(C)(C)NC(=O)[C@@H]1C[C@@H]2CCCC[C@@H]2CN1C[C@@H](O)[C@H](Cc1ccccc1)NC(=O)[C@H](CC(N)=O)NC(=O)c1ccc2ccccc2n1 [Saquinavir]
Biological cut-off (fold resistance) (HIV-1 [3]): 2.5

CC(C)CN(C[C@@H](O)[C@H](Cc1ccccc1)NC(=O)O[C@H]1CCOC1)S(=O)(=O)c1ccc(N)cc1 [VX-478]
Effect of mutation on susceptibility in vitro (HIV-1 [2]; HIV-1 mutation N88S): hypersensitivity | Biological cut-off (fold resistance) (HIV-1 [3]): 2.0
